Experimental data published in paper PMC8131363 (Scientific Reports, 2021).
pEC50: −log10 of the molar value. Structures can show the parent of a compound that is named as a salt. Where two headings read alike, the source gives them in different places. Starred links: 1 amine or outer side, 2 acyl side, 3 side chain; linkers in the order of their positions; H or OH if unused. Non-standard residues stand in square brackets, D forms with d. No end group written: not given here. γGlu = O=C(O)[C@H](CCC(=O)[*:2])N[*:1]

Assays:
cCaSR [1] = target: T1, cCaSR (Felis catus, UniProt C7FF08); assay: cCaSR PAM luminescence assay, double injection with 0.5 mM CaCl2, HEK293/T-REx/natClytin-cCaSR
T1 sequence (C7FF08 1-1081): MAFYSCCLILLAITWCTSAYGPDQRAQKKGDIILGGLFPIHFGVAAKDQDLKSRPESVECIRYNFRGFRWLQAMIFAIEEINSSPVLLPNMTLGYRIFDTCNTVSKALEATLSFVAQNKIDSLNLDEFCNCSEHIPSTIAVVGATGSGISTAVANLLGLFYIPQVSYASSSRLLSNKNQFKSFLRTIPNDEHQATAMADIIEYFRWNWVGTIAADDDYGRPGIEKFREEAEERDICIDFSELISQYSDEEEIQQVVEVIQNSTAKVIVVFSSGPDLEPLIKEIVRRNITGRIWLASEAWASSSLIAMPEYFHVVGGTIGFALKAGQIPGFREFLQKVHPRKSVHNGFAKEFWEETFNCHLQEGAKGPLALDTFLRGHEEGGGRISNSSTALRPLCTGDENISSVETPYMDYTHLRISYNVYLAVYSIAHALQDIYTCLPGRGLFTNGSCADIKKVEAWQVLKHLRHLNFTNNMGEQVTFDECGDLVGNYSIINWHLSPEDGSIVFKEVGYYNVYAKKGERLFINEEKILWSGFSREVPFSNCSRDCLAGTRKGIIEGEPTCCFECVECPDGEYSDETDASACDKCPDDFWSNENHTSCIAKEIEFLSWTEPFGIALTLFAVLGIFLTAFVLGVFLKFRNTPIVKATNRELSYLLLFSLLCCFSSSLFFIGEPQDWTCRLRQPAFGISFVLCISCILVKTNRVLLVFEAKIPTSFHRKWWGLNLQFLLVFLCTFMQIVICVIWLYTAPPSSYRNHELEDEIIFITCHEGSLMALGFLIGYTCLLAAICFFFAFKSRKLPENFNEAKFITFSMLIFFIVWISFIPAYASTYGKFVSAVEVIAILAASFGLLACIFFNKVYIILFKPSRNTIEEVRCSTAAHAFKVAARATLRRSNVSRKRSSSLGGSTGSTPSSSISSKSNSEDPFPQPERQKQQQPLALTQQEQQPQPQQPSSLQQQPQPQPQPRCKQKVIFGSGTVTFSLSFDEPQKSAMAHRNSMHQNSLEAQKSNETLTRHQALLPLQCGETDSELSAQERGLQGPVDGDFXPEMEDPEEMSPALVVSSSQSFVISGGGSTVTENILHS

cCaSR [2] = target: T1, cCaSR; assay: cell-based; conditions: for EC50: > 0.01 M = maximal response not reached
[3] = target: domestic cat Calcium Sensing Receptor (cCaSR) (Felis catus)
cCaSR [4] = target: T1, cCaSR
[5] = Supplementary Table I, PAM assay, dash = no activity
[6] = cCaSR activity, agonist assay, stable inducible cCaSR line, at least three wells
[7] = EC50 (M), agonist assay, stable inducible cCaSR line
[8] = EC50 Ago (M), Supplementary Table I, agonist assay

Compound	EC50 PAM (M) (cCaSR [1]; [5])	pEC50 (cCaSR [2]; [6])	also measured
[γGlu]-Gly			EC50 of agonist activity, luminescence (natClytin) in HEK T-Rex/natClytin cells inducibly expressing cCaSR, calcium-free buffer; activity grade + [3]: > 10 mM
N[C@@H](CC(=O)NCC(=O)O)C(=O)O [β-Asp-Gly]	-	< 2.00	
[γGlu]-Met			EC50 of agonist activity, luminescence (natClytin) in HEK T-Rex/natClytin cells inducibly expressing cCaSR, calcium-free buffer; activity grade + [3]: > 10 mM
NC(CCP(=O)(O)O)C(=O)O (stereo not shown) [2-Amino-4-phosphonobutyric acid]	-	< 2.00	
N[C@@H](CCC(=O)N[C@@H](CSCCO)C(=O)NCC(=O)O)C(=O)O [S-(2-Hydroxyethyl)glutathione]	-	2.00 to 3.00	EC50 (cCaSR [2]; [7]): 0.00211 M; EC50 (cCaSR [2]; [8]): 0.0021 M
N[C@@H](CCC(=O)N[C@@H](CS)C(=O)O)C(=O)O [γ-Glu-Cys]	-	< 2.00	
[γGlu]-Val-Gly			EC50 of agonist activity, luminescence (natClytin) in HEK T-Rex/natClytin cells inducibly expressing cCaSR, calcium-free buffer; activity grade ++ [3]: 4.22 mM
N[C@@H](CCS(=O)(=O)O)C(=O)O [L-Homocysteic acid]	-	< 2.00	
S-Lactoylglutathione (peptide)			EC50 of agonist activity, luminescence (natClytin) in HEK T-Rex/natClytin cells inducibly expressing cCaSR, calcium-free buffer; activity grade + [3]: > 10 mM
NC[C@H]1O[C@H](O[C@H]2[C@H](O[C@@H]3O[C@H](CO)[C@@H](O)[C@H]3O)[C@@H](O)[C@H](N)C[C@@H]2N)[C@H](N)[C@@H](O)[C@@H]1O [Ribostamycin sulfate salt, reference compound]	-	< 2.00	
N[C@@H](CCC(=O)NCC(=O)O)C(=O)O [γ-Glu-Gly]	-	< 2.00	
N[C@@H](CCCC(=O)O)C(=O)O [L-2-Aminoadipic acid]	-	< 2.00	
N[C@@H](Cc1ccc(OP(=O)(O)O)cc1)C(=O)O [O-Phospho-L-tyrosine]	-	< 2.00	agonist activity on cCaSR (in words) (cCaSR [4]): agonist activity
CN[C@@H]1[C@@H](O)[C@@H](O[C@@H]2[C@@H](O)[C@H](O[C@H]3OC(CN)=CC[C@H]3N)[C@@H](N)C[C@H]2N)OC[C@]1(C)O [Sisomicin sulfate salt, reference compound]	-		EC50 (cCaSR [2]; [7]): 0.000299 M; EC50 (cCaSR [2]; [8]): 0.0003 M
[γGlu]-Trp			EC50 of agonist activity, luminescence (natClytin) in HEK T-Rex/natClytin cells inducibly expressing cCaSR, calcium-free buffer; activity grade + [3]: > 10 mM
[γGlu]-Ala			EC50 of agonist activity, luminescence (natClytin) in HEK T-Rex/natClytin cells inducibly expressing cCaSR, calcium-free buffer; activity grade + [3]: > 10 mM
NC(CCCCC(=O)O)C(=O)O (stereo not shown) [2-Aminopimelic acid]	-	< 2.00	EC50 Ago (M) (cCaSR [4]; Supplementary Table I, agonist assay, dash = no activity): -
N[C@@H](CP(=O)(O)O)C(=O)O [L-( +)-2-Amino-3-phosphonopropionic acid, L-(+)-2-Amino-3-phosphonopropionic acid]			EC50 PAM (M) (cCaSR [1]): -; pEC50 (cCaSR [2]; cCaSR activity): < 2.00
CC(C)C[C@H](NC(=O)C[C@H](N)C(=O)O)C(=O)O [β-Asp-Leu]	-	< 2.00	EC50 (cCaSR [2]; [8]): > 0.01 M
[γGlu]-Val			EC50 of agonist activity, luminescence (natClytin) in HEK T-Rex/natClytin cells inducibly expressing cCaSR, calcium-free buffer; activity grade ++ [3]: 4.52 mM
N[C@@H](CS(=O)(=O)O)C(=O)O [L-Cysteic acid monohydrate]	-	2.00 to 3.00	agonist activity on cCaSR (in words) (cCaSR [4]): agonist activity; EC50 (cCaSR [2]; [7]): 0.00234 M; EC50 (cCaSR [2]; [8]): 0.00234 M
CNC(C)C1CCC(N)C(OC2C(N)CC(N)C(OC3OCC(C)(O)C(NC)C3O)C2O)O1 (stereo not shown) [Gentamicin, reference compound]	-		EC50 (cCaSR [2]; [7]): 0.000989 M; EC50 (cCaSR [2]; [8]): 0.00099 M

Second part, led by results:

EC50 PAM (M) (cCaSR [1]; [5])	pEC50 (cCaSR [2]; [6])	Compound	also measured
-	< 2.00	NC(CC(F)C(=O)O)C(=O)O (racemic) [4-Fluoro-DL-glutamic acid]	
-	2.00 to 3.00	N[C@@H](CCC(=O)N[C@@H](CCC(=O)O)C(=O)O)C(=O)O [γ-Glu-Glu]	EC50 (cCaSR [2]; [7]): 0.00207 M; EC50 (cCaSR [2]; [8]): 0.00206 M
-	< 2.00	N[C@@H](CC(=O)N[C@@H](Cc1ccccc1)C(=O)O)C(=O)O [β-Asp-Phe]	
-	< 2.00	CSCC[C@H](NC(=O)CC[C@H](N)C(=O)O)C(=O)O [γ-Glu-Met]	pEC50 (cCaSR [2]; EC50 Value (heat map Fig. 5), cCaSR agonists, heat map): 2.16
